Results published in patent US9938281B2 (Merck Sharp & Dohme Corp., priority 2012, dated 2018).
pIC50: −log10 of the molar value.

What was measured:
PI3K-alpha = target: T1, PI3K-alpha (Homo sapiens, UniProt P42336); experiment: HTRF PI3K biochemical assay, alpha isoform; settings: ratio PI3K-alpha IC50 value / PI3K-delta IC50 value
T1 construct: purchased Upstate; Millipore 14-602
From the text: The PI3-Kinase biochemical assays were developed to measure the intrinsic potency and compound dependent inhibition of the alpha, beta, delta, and gamma PI3K isoform enzymes. This assay was developed and further optimized from a kit produced by Upstate (Millipore catalog #33-047) and has been configured for HTS and SAR screening. Briefly, this procedure exploits the exquisite specificity and high affinity binding of enzyme reaction substrate phosphatidyl(3,4,5)triphosphate (PIP3) to the GRP1 pleckstrin homology (PH) domain to generate the signal. In the absence of PIP3, an HTRF (Homogeneous Time-Resolved Fluorescence energy transfer) complex is formed consisting of europium (Eu)-labeled anti-GST, GSTtagged GRP1-PH domain, biotin-PIP3 and streptavidin conjugated APC. The native PIP3 produced by PI3-Kinase activity disrupts in a competitive manner the biotin-PIP3 from the PH domain, resulting in the loss of energy transfer (HTRF complex) and a decrease in the signal. The format of this assay is the same for all 4 isoforms of PI3K; the differences lie in the concentration of enzyme used to achieve robust assay window. The alpha, beta, and delta assays are run at 0.5, 1, and 0.3 nM enzymes and the gamma assay is run at 5 nM enzyme. The ATP concentration is 100 uM in the alpha, beta, and delta assays and 50 uM ATP in the gamma assay. All reactions are run at 5 uM PIP2.
Compounds are serially diluted (3-fold in 100% DMSO) across a 384-well polypropylene source plated from column 3 to column 12 and column 13 to column 22, to yield 10 concentration dose response for each test compound. Columns 1, 2, 23 and 24 contain either only DMSO or pharmacological known control inhibitor.
The PI3-Kinase biochemical assay was optimized using the HTRF kit provided by Upstate (Millipore). The assay kit contains six reagents: 1) 4× Reaction Buffer; 2) native PIP2 (substrate); 3) Stop (EDTA); 4) Detection Mix A (Streptavidin-APC); 5) Detection Mix B (Eu-labeled Anti-GST plus GST-tagged PH-domain); 6) Detection Mix C.
PI3Kinase Reaction Buffer is prepared by dilution the stock 1:4 with de-ionized water. […] Enzyme addition and compound pre-incubation are initiated by the addition of 1.25 ul of PI3K (at twice its final concentration) in the 1× reaction buffer to all wells using a BioRaptor. Plates are incubated at room temperature for 15 minutes. Reactions are initiated by addition of 1.25 ul of 2× substrate solution (PIP2 and ATP in 1× reaction buffer) using BioRaptor. Plates are incubated in humidified chamber at room temperature for one hour. Reactions are quenched by addition of 0.625 uL of stop solution to all wells using the BioRaptor. The quenched reactions are then processed to detect product formation by adding 0.625 uL of Detection Solution to all wells using the BioRaptor (Detection mix C, Detection Mix A, and Detection Mix B combined together in an 18:1:1 ratio prepared 2 hours prior to use).
The loss of the HTRF signal is due to the displacement of biotinylated-PIP3 from the PH domain by the PI3K-dependent conversion of PIP2 to PIP3. This loss of signal is nonlinear with respect to both increasing product and time. This non-linear detection will impact accuracy of IC50 calculations; therefore, there is a need for a correction factor to obtain more accurate IC50 values. This correction is derived from a PIP3 standard curve run in a separate assay plate. All data were calculated using the ratio of acceptor (APC) to donor (Europium) fluorescence in each well of the assay plate. […] An IC50 was then calculated fitting the % inhibition data to the equation: % inhibition=min+(Max−min)/1+([inhibitor]/IC50)^n) where min is the % inhibition with inhibitor, max is the signal in DMSO control, and n is the Hill slope.
The determination of relative selectivity for a given compound is defined as the relative ratio of the (PI3K-alphalC50 value/PI3K-delta IC50 value).

PI3K-delta = target: T2, PI3K-delta (Homo sapiens, UniProt O00329); experiment: HTRF PI3K biochemical assay, delta isoform; settings: form screened (neutral or TFA salt) given, read-out: PI3Kdelta IC50
T2 construct: purchased Upstate; Millipore 14-604
T2 sequence (O00329 whole entry, canonical isoform): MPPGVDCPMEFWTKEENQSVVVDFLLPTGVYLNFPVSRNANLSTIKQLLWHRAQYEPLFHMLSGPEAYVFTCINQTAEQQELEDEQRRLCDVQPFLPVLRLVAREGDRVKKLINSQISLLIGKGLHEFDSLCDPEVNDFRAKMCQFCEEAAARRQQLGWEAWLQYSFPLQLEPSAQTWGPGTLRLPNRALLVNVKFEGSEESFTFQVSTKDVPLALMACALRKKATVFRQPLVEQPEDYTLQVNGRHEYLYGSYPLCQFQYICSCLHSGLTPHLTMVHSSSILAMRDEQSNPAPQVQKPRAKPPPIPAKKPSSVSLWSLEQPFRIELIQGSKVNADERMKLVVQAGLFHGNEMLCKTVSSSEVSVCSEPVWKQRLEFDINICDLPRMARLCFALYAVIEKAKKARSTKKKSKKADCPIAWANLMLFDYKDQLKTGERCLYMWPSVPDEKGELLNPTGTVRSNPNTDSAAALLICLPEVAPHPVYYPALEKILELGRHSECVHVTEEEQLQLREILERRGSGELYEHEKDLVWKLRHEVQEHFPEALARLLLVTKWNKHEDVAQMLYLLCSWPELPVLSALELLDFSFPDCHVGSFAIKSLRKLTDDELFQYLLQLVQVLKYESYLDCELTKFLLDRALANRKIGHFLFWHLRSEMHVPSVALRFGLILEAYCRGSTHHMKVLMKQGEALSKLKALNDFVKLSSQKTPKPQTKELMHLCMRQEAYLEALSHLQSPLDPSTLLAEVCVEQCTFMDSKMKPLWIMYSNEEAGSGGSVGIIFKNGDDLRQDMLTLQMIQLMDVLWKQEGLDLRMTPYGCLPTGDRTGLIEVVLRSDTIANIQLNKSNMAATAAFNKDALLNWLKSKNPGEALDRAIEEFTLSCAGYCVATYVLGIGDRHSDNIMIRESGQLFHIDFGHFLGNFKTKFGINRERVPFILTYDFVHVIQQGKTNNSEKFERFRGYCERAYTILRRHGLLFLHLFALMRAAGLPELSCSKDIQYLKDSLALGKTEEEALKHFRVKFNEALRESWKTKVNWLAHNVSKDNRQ
T2 sequence (P27986 whole entry partner, canonical isoform): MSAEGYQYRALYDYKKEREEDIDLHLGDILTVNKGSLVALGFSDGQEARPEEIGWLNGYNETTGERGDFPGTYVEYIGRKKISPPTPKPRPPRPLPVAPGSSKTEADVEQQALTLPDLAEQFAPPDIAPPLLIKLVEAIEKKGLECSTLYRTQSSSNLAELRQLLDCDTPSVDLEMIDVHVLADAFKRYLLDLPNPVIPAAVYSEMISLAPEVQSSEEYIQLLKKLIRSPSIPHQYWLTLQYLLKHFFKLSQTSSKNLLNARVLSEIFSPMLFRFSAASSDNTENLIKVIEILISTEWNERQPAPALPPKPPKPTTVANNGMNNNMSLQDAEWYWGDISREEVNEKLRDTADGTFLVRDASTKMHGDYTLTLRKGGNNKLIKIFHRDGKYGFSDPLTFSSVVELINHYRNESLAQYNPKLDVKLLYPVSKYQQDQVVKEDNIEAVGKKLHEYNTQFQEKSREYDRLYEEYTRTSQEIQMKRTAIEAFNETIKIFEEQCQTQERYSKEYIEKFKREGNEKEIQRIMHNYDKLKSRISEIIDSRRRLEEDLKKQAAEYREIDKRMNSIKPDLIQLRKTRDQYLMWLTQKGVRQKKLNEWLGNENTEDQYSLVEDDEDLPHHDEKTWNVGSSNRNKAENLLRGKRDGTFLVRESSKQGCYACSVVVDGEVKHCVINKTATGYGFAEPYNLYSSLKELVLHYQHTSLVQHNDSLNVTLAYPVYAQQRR

T1 sequence (P42336 whole entry, canonical isoform): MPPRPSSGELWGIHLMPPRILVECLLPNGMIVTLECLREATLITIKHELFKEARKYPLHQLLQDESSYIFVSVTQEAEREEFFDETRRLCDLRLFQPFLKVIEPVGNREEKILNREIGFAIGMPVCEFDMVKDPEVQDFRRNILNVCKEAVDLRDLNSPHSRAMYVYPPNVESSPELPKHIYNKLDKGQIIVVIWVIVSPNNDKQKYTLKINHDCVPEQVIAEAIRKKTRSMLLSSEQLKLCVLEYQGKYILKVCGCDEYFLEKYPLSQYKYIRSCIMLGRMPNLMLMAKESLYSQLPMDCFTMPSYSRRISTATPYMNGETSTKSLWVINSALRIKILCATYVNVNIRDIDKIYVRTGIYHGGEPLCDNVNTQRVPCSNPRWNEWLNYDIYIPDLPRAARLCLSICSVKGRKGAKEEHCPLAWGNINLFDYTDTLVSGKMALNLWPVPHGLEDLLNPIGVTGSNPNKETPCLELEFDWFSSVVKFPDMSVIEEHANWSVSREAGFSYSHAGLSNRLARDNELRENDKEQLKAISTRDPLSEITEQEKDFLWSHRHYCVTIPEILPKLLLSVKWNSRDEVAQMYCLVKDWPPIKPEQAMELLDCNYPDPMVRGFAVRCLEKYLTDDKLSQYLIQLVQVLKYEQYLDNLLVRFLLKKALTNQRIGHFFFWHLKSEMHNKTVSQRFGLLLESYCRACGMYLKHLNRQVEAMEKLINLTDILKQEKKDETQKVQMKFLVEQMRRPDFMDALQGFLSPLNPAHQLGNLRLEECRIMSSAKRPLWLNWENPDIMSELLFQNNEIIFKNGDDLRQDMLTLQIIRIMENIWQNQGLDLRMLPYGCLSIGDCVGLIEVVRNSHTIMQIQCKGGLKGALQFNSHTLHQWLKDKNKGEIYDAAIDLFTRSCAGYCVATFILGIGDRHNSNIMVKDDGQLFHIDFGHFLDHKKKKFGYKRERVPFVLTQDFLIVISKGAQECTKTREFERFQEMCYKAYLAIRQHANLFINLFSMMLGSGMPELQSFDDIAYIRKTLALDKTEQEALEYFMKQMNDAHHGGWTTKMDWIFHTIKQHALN
T1 sequence (P27986 whole entry partner, canonical isoform): as the sequence (P27986 whole entry partner, canonical isoform) above

Row | Selectivity versus PI3Kalpha (PI3K-alpha) | pIC50 (PI3K-delta) | Compound
1 | >10 | 8.82 | CCn1ncc(-c2nc3c(N[C@H]4CCN(C(=O)c5nc(C)oc5C)C4)ncnc3n2C)c1C [Compound 2-5, N-{(3S)-1-[(2,5-dimethyl-1,3-oxazol-4-yl)carbonyl]pyrrolidin-3-yl}-8-(1-ethyl-5-methyl-1H-pyrazol-4-yl)-9-methyl-9H-purin-6-amine]
2 | >10 | 8.80 | CCn1ncc(-c2nc3c(N[C@H]4CCN(C(=O)C5CCOC(C)(C)C5)C4)ncnc3n2C)c1C (stereo partly drawn) [Compound 2-6, N-{(3S)-1-[(2,2-dimethyltetrahydro-2H-pyran-4-yl)carbonyl]pyrrolidin-3-yl}-8-(1-ethyl-5-methyl-1H-pyrazol-4-yl)-9-methyl-9H-purin-6-amine]
3 | >10 | 8.92 | CCn1ncc(-c2nc3c(N[C@H]4CCN(C(=O)C5CC5)C4)ncnc3n2C)c1C [Compound 2-7, N-[(3S)-1-(cyclopropylcarbonyl)pyrrolidin-3-yl]-8-(1-ethyl-5-methyl-1H-pyrazol-4-yl)-9-methyl-9H-purin-6-amine]
4 | >10 | 8.66 | CCC(=O)N1CC[C@H](N(C)c2ncnc3c2nc(-c2cnc(OC)c(C)c2)n3CC)C1 [Compound 2-8, (S)-1-(3-((9-ethyl-8-(6-methoxy-5-methylpyridin-3-yl)-9H-purin-6-yl)(methyl)amino)pyrrolidin-1-yl)propan-1-one]
5 | >10 | > 9.00 | CCC(=O)N1CC[C@H](Nc2ncnc3c2nc(-c2cnc(OC)c(C)c2)n3CC)C1 [Compound 2-9, (S)-1-(3-((9-ethyl-8-(6-methoxy-5-methylpyridin-3-yl)-9H-purin-6-yl)amino)pyrrolidin-1-yl)propan-1-one]
6 | >10 | > 9.00 | CCC(=O)N1CC[C@H](Nc2ncnc3c2nc(-c2cnc(C(C)(C)C)s2)n3CC)C1 [Compound 2-10, (S)-1-(3-((8-(2-(tert-butyl)thiazol-5-yl)-9-ethyl-9H-purin-6-yl)amino)pyrrolidin-1-yl)propan-1-one]
7 | >10 | 8.44 | CCC(=O)N1CC[C@H](N(C)c2ncnc3c2nc(-c2cnc(C(C)(C)C)s2)n3CC)C1 [Compound 2-11, (S)-1-(3-((8-(2-(tert-butyl)thiazol-5-yl)-9-ethyl-9H-purin-6-yl)(methyl)amino)pyrrolidin-1-yl)propan-1-one]
8 | >10 | 8.46 | CCC(=O)N1CC[C@H](Nc2ncnc3c2nc(-c2cnc(OC)c(C)c2)n3C)C1 [Compound 2-12, (S)-1-(3-((8-(6-methoxy-5-methylpyridin-3-yl)-9-methyl-9H-purin-6-yl)amino)pyrrolidin-1-yl)propan-1-one]
9 | >10 | 7.77 | CCC(=O)N1CC[C@H](N(C)c2ncnc3c2nc(-c2cnc(OC)c(C)c2)n3C)C1 [Compound 2-13, (S)-1-(3-((8-(6-methoxy-5-methylpyridin-3-yl)-9-methyl-9H-purin-6-yl)(methyl)amino)pyrrolidin-1-yl)propan-1-one]
10 | >10 | 8.92 | CCC(=O)N1CC[C@H](Nc2ncnc3c2nc(-c2cnc(C(C)(C)C)s2)n3C)C1 [Compound 2-14, (S)-1-(3-((8-(2-(tert-butyl)thiazol-5-yl)-9-methyl-9H-purin-6-yl)amino)pyrrolidin-1-yl)propan-1-one]
11 | >10 | > 9.00 | CCC(=O)N1CC[C@H](Nc2ncnc3c2nc(-c2cnn(CC)c2C)n3CC)C1 [Compound 2-15, (S)-1-(3-((9-ethyl-8-(1-ethyl-5-methyl-1H-pyrazol-4-yl)-9H-purin-6-yl)amino)pyrrolidin-1-yl)propan-1-one]
12 | >10 | 7.28 | CCC(=O)N1CC[C@H](Nc2ncnc3c2nc(-c2cnn(CC)c2C)n3C2CC2)C1 [Compound 2-16, (S)-1-(3-((9-cyclopropyl-8-(1-ethyl-5-methyl-1H-pyrazol-4-yl)-9H-purin-6-yl)amino)pyrrolidin-1-yl)propan-1-one]
13 | >10 | 8.57 | CCC(=O)N1CC[C@H](Nc2ncnc3c2nc(-c2cnc(C)nc2)n3CC)C1 [Compound 2-17, (S)-1-(3-((9-ethyl-8-(2-methylpyrimidin-5-yl)-9H-purin-6-yl)amino)pyrrolidin-1-yl)propan-1-one]
14 | >10 | 8.62 | CCn1c(-c2cnc(C)nc2)nc2c(N[C@H]3CCN(C(=O)C4CCOCC4)C3)ncnc21 [Compound 2-18, (S)-(3-((9-ethyl-8-(2-methylpyrimidin-5-yl)-9H-purin-6-yl)amino)pyrrolidin-1-yl)(tetrahydro-2H-pyran-4-yl)methanone]
15 | >10 | 8.68 | CCn1c(-c2cnc(C)nc2)nc2c(N[C@H]3CCN(C(=O)c4nc(C)oc4C)C3)ncnc21 [Compound 2-19, (S)-(2,5-dimethyloxazol-4-yl)(3-((9-ethyl-8-(2-methylpyrimidin-5-yl)-9H-purin-6-yl)amino)pyrrolidin-1-yl)methanone]
16 | >10 | > 9.00 | CCn1c(-c2cnc(C)nc2)nc2c(N[C@H]3CCN(C(=O)C4CC4)C3)ncnc21 [Compound 2-21, (S)-cyclopropyl(3-((9-ethyl-8-(2-methylpyrimidin-5-yl)-9H-purin-6-yl)amino)pyrrolidin-1-yl)methanone]
17 | >10 | 8.77 | CCn1c(-c2cnc(C)nc2)nc2c(N[C@H]3CCN(C(=O)C4CCC4)C3)ncnc21 [Compound 2-22, (S)-cyclobutyl(3-((9-ethyl-8-(2-methylpyrimidin-5-yl)-9H-purin-6-yl)amino)pyrrolidin-1-yl)methanone]
18 | >10 | 8.10 | CCn1c(-c2cnc(C)nc2)nc2c(N[C@H]3CCN(C(=O)C4CCCC4)C3)ncnc21 [Compound 2-23, (S)-cyclopentyl(3-((9-ethyl-8-(2-methylpyrimidin-5-yl)-9H-purin-6-yl)amino)pyrrolidin-1-yl)methanone]
19 | >10 | 8.17 | CCn1c(-c2cnc(C)nc2)nc2c(N[C@H]3CCN(C(=O)C4CC(F)(F)C4)C3)ncnc21 [Compound 2-24, (S)-(3,3-difluorocyclobutyl)(3-((9-ethyl-8-(2-methylpyrimidin-5-yl)-9H-purin-6-yl)amino)pyrrolidin-1-yl)methanone]
20 | >10 | 7.55 | CCC(=O)N1CCC[C@H](Nc2ncnc3c2nc(-c2cnc(C)nc2)n3CC)C1 [Compound 2-27, 9-ethyl-8-(2-methylpyrimidin-5-yl)-N-[(3S)-1-propanoylpiperidin-3-yl]-9H-purin-6-amine]
21 | >10 | 7.82 | CCn1c(-c2cnc(C)nc2)nc2c(N[C@H]3CCCN(C(=O)C4CC4)C3)ncnc21 [Compound 2-28, N-[(3S)-1-(cyclopropylcarbonyl)piperidin-3-yl]-9-ethyl-8-(2-methylpyrimn-5-yl)-9H-purin-6-amine]
22 | >10 | 7.96 | CCn1ncc(-c2nc3c(N[C@H]4CCCN(C(=O)C5CCOCC5)C4)ncnc3n2C)c1C [Compound 2-29, 8-(1-ethyl-5-methyl-1H-pyrazol-4-yl)-9-methyl-N-[(3S)-1-(tetrahydro-2H-pyran-4-ylcarbonyl)piperidin-3-yl]-9H-purin-6-amine]
23 | >10 | 7.82 | CCn1c(-c2cnc(C)nc2)nc2c(N[C@H]3CCN(C(=O)CC(C)(C)O)C3)ncnc21 [Compound 2-30, 4-[(3S)-3-{[9-ethyl-8-(2-methylpyrimidin-5-yl)-9H-purin-6-yl]amino}pyrrolidin-1-yl]-2-methyl-4-oxobutan-2-ol]
24 | >10 | 8.00 | CCn1c(-c2cnc(C)nc2)nc2c(N[C@H]3CCN(C(=O)CN(C)C)C3)ncnc21 [Compound 2-31, N-{(3S)-1-[(dimethylamino)acetyl]pyrroli-din-3-yl}-9-ethyl-8-(2-methylpyrimidin-5-yl)-9H-purin-6-amine]
25 | >10 | 7.77 | CCn1c(-c2cnc(C)nc2)nc2c(N[C@H]3CCN(C(=O)Cc4ccccc4)C3)ncnc21 [Compound 2-36, 9-ethyl-8-(2-methylpyrimidin-5-yl)-N-[(3S)-1-(phenylacetyl)pyrrolidin-3-yl]-9H-purin-6-amine]
26 | >10 | 8.77 | CCn1c(-c2cnc(C)nc2)nc2c(N[C@H]3CCN(C(=O)[C@H]4C[C@H](OC)C4)C3)ncnc21 [Compound 2-38, 9-ethyl-N-{(3S)-1-[(trans-3-methoxycyclobutyl)carbonyl]pyrrolidin-3-yl}-8-(2-methylpyrimidin-5-yl)-9H-purin-6-amine]
27 | >10 | > 9.00 | CCn1c(-c2cnc(C)nc2)nc2c(N[C@H]3CCN(C(=O)[C@H]4C[C@@H](OC)C4)C3)ncnc21 [Compound 2-39, 9-ethyl-N-{(3S)-1-[(cis-3-methoxycyclobutyl)carbonyl]pyrrolidin-3-yl}-8-(2-methylpyrimidin-5-yl)-9H-purin-6-amine]
28 | >10 | 8.80 | CCn1c(-c2cnc(C)nc2)nc2c(N[C@H]3CCN(C(=O)[C@@H]4CCOC4)C3)ncnc21 [Compound 2-40, 9-ethyl-8-(2-methylpyrimidin-5-yl)-N-{(3S)-1-[(3R)-tetrahydrofuran-3-ylcarbonyl]pyrrolidin-3-yl}-9H-purin-6-amine]
29 | >10 | 8.37 | CCn1c(-c2cnc(C)nc2)nc2c(N[C@H]3CCN(C(=O)[C@H]4CCOC4)C3)ncnc21 [Compound 2-41, 9-ethyl-8-(2-methylpyrimidin-5-yl)-N-{(3S)-1-[(3S)-tetrahydrofuran-3-ylcarbonyl]pyrrolidin-3-yl}-9H-purin-6-amine]
30 | >10 | 7.54 | CCn1c(-c2cnc(C)nc2)nc2c(N[C@H]3CCN(C(=O)[C@H]4CCCN4C)C3)ncnc21 [Compound 2-42, 9-ethyl-N-[(3S)-1-(1-methyl-D-prolyl)pyrrolidin-3-yl]-8-(2-methylpyrimidin-5-yl)-9H-purin-6-amine]
